Measurements from paper PMC11772392, “Host Plant Odour and Sex Pheromone are Integral to Mate Finding in Codling Moth” (Journal of Chemical Ecology, 2025).

Target: T1, CpomOR3 (Cydia pomonella, UniProt H9A5M3)
T1 construct: gene OR3; full-length ORF cloned in pUASg-HA.attB, expressed in Drosophila melanogaster ab3A olfactory neurons (pOr22a-Gal4ki empty neuron line); with Odorant receptor coreceptor (Drosophila melanogaster, endogenous in the ab3A neuron)
T1 sequence (H9A5M3 1-426): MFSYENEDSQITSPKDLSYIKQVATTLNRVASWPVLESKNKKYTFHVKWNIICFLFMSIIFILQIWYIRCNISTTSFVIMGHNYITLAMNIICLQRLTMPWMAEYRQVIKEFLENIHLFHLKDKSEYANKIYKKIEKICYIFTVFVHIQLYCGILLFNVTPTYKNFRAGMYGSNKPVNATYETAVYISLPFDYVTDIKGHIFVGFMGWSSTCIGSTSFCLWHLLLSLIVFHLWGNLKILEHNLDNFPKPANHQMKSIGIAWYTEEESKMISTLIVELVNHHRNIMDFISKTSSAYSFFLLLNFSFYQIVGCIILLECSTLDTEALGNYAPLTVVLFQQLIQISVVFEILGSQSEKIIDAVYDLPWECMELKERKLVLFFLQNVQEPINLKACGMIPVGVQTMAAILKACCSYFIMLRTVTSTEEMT
T1 sequence (Q9VNB5 1-486 partner): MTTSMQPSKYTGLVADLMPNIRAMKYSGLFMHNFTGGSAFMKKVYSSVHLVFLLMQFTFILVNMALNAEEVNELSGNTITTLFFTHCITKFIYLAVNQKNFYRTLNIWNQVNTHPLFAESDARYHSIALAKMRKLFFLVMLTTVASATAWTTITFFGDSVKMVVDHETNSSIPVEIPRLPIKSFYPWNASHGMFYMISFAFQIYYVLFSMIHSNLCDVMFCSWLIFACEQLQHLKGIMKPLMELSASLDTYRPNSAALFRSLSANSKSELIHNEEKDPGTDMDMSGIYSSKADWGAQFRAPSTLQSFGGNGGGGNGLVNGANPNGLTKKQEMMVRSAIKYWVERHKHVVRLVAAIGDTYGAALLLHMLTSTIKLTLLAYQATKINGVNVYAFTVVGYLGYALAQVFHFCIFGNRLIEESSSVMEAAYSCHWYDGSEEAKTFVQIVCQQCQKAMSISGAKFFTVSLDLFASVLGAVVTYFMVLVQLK
Experiment: GC-coupled single sensillum recording (GC-SSR), ab3A neuron
Type: cell-based
Details: pear ester eluting from apple fruit headspace on GC, dose not stated, n = 3; activation; synthetic pear ester dose response (1, 10, 25 ng) not given
Excerpt: GC-coupled single sensillum recording (GC-SSR), ab3A neuron on CpomOR3 | antennal sensilla expressing CpomOR3 began to respond at the retention time of pear ester

## CCCCC/C=C\C=C\C(=O)OCC [pear ester, ethyl (E,Z)-2,4-decadienoate]
  spike frequency response: 12.9 ± 4.1 spikes/s
